Experimental findings from patent publication US9663478B2, “Benzotriazine oxides as drugs targeting Mycobacterium tuberculosis” (priority 2011, dated 2017) are described below.

One data set concerns Vero cells. The data set is described as follows: Cytotoxicity against Vero cells (Cell Titer-Glo). The following applies: 72 h; Tables 1-4 and text. A general note: Cellular ATP, detected with luciferase, serves as a proxy for viable cell number.
The test system of a further data set is NRP Mtb H37Rv cells. The data set is described as follows: Low-oxygen recovery assay (LORA) MIC. It counts as cell-based, Mycobacterium tuberculosis. To be noted: Mycobacterium tuberculosis, H37RV; NRP Mtb; Tables 1-4 and text; read-out: LORA MIC - ITR.
In data set [1] the test system is Mtb H37Rv. The data set is described as follows: TB MIC - ITR (UIC), Institute for Tuberculosis Research. The following applies: Mycobacterium tuberculosis, H37RV; Tables 1-4; read-out: TB MIC - ITR. It counts as cell-based, Mycobacterium tuberculosis.
For data set [2], the system named is Mtb H37Rv. The data set is described as follows: TB MIC - SRI, resazurin-based microplate assay. It counts as cell-based, Mycobacterium tuberculosis. The following applies: Mycobacterium tuberculosis, H37RV, Tables 1-4 and text; read-out: TB MIC - SRI. (Alamar Blue is a resazurin reagent that responds to reducing activity.)
Another data set relates to OFX-R. The data set can be described thus: MIC OFX-R (Table E1). It counts as cell-based.
For the next data set, the system named is H37Rv. The data set is described as follows: MIC H37Rv (Table E1, Additional BTO Activity Data). It counts as cell-based. To be noted: Mycobacterium tuberculosis.
The nature of data set [3]: MP MTT % viable (Table E1). To be noted: MP (so in the source).
Another data set concerns RMP-R. The data set can be described thus: MIC RMP-R (Table E1). It counts as cell-based.
In another data set the test system is INH-r. The data set is described as follows: MIC INH-r (Table E1). It counts as cell-based.

Values after ≈ are worked out from the molar mass of the structure shown.

As for `O=C1CN(/N=C/c2ccc([N+](=O)[O-])o2)C(=O)N1` [Nitrofurantoin, reference compound], in the data set with Vero cells, the “Vero Tox CC50” value turned out to be 23 mg/L. Also, the minimum inhibitory concentration (MIC) (in general, the smallest concentration in the dilution series that meets the test's criterion for growth inhibition) in the data set with NRP Mtb H37Rv cells amounted to 32 mg/L (≈ 134 µM); in the data set on Mtb H37Rv [1], 28 mg/L (≈ 118 µM); with Mtb H37Rv [2], 16 mg/L (≈ 67.2 µM).

Turning to `COc1cccc(C2CCN(c3n[n+]([O-])c4cc5c(cc4[n+]3[O-])CCC5)C2)c1OC` (centres unmarked) [Cmpd 18], the MIC is 0.049 mg/L (≈ 0.12 µM) in the data set with OFX-R, 0.391 mg/L (≈ 0.957 µM) against H37Rv, 0.391 mg/L (≈ 0.957 µM) in the data set on RMP-R and 0.195 mg/L (≈ 0.477 µM) in the data set with INH-r. The viability – broadly, a read-out of living cells in per cent, often relative to untreated cells – at 0.01 ug/ml in data set [3] is 85%. In addition, the viability at 0.1 ug/ml in data set [3] stood at 55%. Also, the viability at 1 ug/ml in [3] was determined as 33%.

Regarding `CN(Cc1ccc(C(F)(F)F)cc1)c1n[n+]([O-])c2cc3c(cc2[n+]1[O-])CCC3` [Cmpd 11], the MIC against OFX-R came out at 0.024 mg/L (≈ 0.0615 µM); with H37Rv, 0.098 mg/L (≈ 0.251 µM); against RMP-R, 0.024 mg/L (≈ 0.0615 µM); with INH-r, 0.195 mg/L (≈ 0.5 µM). Further, the viability at 0.01 ug/ml in data set [3] was 113%. For the same molecule, in [3], the viability at 0.1 ug/ml came to 108%. For the same molecule, the viability at 1 ug/ml in data set [3] was determined as 104%.

With `CN(Cc1ccc(F)cc1)c1n[n+]([O-])c2cc3c(cc2[n+]1[O-])CCC3` [Cmpd 14], the MIC turned out to be 0.098 mg/L (≈ 0.288 µM) with OFX-R, 0.195 mg/L (≈ 0.573 µM) against H37Rv, 0.049 mg/L (≈ 0.144 µM) against RMP-R and 0.098 mg/L (≈ 0.288 µM) in the data set with INH-r. Further, the viability at 0.01 ug/ml in [3] turned out to be 112%. Besides, the viability at 0.1 ug/ml in data set [3] is 82%. Also, the viability at 1 ug/ml in [3] turned out to be 1%.

With `[O-][n+]1nc(N2CC3CCCC3C2)[n+]([O-])c2cc3c(cc21)CCC3` (centres unmarked) [Cmpd 10], the minimal inhibitory concentration (MIC) against OFX-R worked out at 0.195 mg/L (≈ 0.624 µM); against H37Rv, 0.391 mg/L (≈ 1.25 µM); against RMP-R, 0.098 mg/L (≈ 0.314 µM); in the data set with INH-r, 0.391 mg/L (≈ 1.25 µM). Besides, in [3], the viability at 0.01 ug/ml is 103%. Also, the viability at 0.1 ug/ml in data set [3] was determined as 94%. In data set [3], the viability at 1 ug/ml stood at 107%.

Take `O=C(Cn1ccnc1[N+](=O)[O-])NCCO` [Etanidazole, reference compound]: in the data set on Vero cells, the “Vero Tox CC50” value was >16 mg/L. The minimal inhibitory concentration (MIC) with NRP Mtb H37Rv cells was 26 mg/L (≈ 121 µM); in the data set on Mtb H37Rv [1], > 32 mg/L; in the data set with Mtb H37Rv [2], > 10 mg/L.

As to `[O-][n+]1nc(N2CCC(c3ccccc3Cl)C2)[n+]([O-])c2cc3c(cc21)CCC3` (centres unmarked) [Cmpd 15], the MIC against OFX-R stood at 0.024 mg/L (≈ 0.0627 µM); in the data set on H37Rv, 0.098 mg/L (≈ 0.256 µM); in the data set on RMP-R, 0.098 mg/L (≈ 0.256 µM); against INH-r it was 0.098 mg/L (≈ 0.256 µM). In addition, in data set [3], the viability at 0.01 ug/ml worked out at 102%. The viability at 0.1 ug/ml in data set [3] came out at 75%. For the same molecule, the viability at 1 ug/ml in [3] is 58%.

For the molecule `Cc1ncc([N+](=O)[O-])n1CCO` [Metronidazole, reference compound], the “Vero Tox CC50” value in the data set on Vero cells was >16 mg/L. For the same molecule, the minimal inhibitory concentration (MIC) with NRP Mtb H37Rv cells is 11 mg/L (≈ 64.3 µM); in the data set on Mtb H37Rv [1], > 32 mg/L; in the data set with Mtb H37Rv [2], > 10 mg/L.

As for `[O-][n+]1nc(N2CCC(c3ccccc3F)C2)[n+]([O-])c2cc3c(cc21)CCC3` (centres unmarked) [Cmpd 13], the MIC amounted to 0.024 mg/L (≈ 0.0655 µM) in the data set on OFX-R, 0.098 mg/L (≈ 0.267 µM) in the data set on H37Rv, 0.049 mg/L (≈ 0.134 µM) in the data set on RMP-R and 0.098 mg/L (≈ 0.267 µM) with INH-r. The viability at 0.01 ug/ml in [3] came out at 161%. The viability at 0.1 ug/ml in [3] was determined as 123%. Also, in data set [3], the viability at 1 ug/ml was found to be 102%.

The molecule `[O-][n+]1nc(NC2(c3ccc(F)cc3)CC2)[n+]([O-])c2cc3c(cc21)CCC3` [Cmpd 7] registered an MIC against H37Rv of 17.6 mg/L (≈ 49.9 µM).

With `COc1ccc(CN(C)c2n[n+]([O-])c3cc4c(cc3[n+]2[O-])CCC4)cc1` [Cmpd 12], the minimal inhibitory concentration (MIC) was 0.195 mg/L (≈ 0.553 µM) against OFX-R, 0.391 mg/L (≈ 1.11 µM) with H37Rv, 0.098 mg/L (≈ 0.278 µM) against RMP-R and 0.098 mg/L (≈ 0.278 µM) in the data set on INH-r. Further, the viability at 0.01 ug/ml in [3] was determined as 121%. Further, the viability at 0.1 ug/ml in data set [3] stood at 94%. For the same molecule, the viability at 1 ug/ml in [3] is 88%.

With `Nc1n[n+]([O-])c2ccccc2[n+]1[O-]` [TPZ, tirapazamine, reference compound], in the data set with Vero cells, the “Vero Tox CC50” value was 8.0 mg/L. The figures for the MIC with NRP Mtb H37Rv cells, in the data set on Mtb H37Rv [1] and with Mtb H37Rv [2] were 7.3 mg/L (≈ 41 µM), 3.7 mg/L (≈ 20.8 µM) and 5 mg/L (≈ 28.1 µM), respectively.

On to `COc1ccc(OC)c(C2CCN(c3n[n+]([O-])c4cc5c(cc4[n+]3[O-])CCC5)C2)c1` (centres unmarked) [Cmpd 16], for which the minimal inhibitory concentration (MIC) in the data set with OFX-R worked out at 0.098 mg/L (≈ 0.24 µM); against H37Rv, 0.195 mg/L (≈ 0.477 µM); in the data set with RMP-R, 0.195 mg/L (≈ 0.477 µM); with INH-r it was 0.098 mg/L (≈ 0.24 µM). In data set [3], the viability at 0.01 ug/ml turned out to be 122%. The viability at 0.1 ug/ml in [3] was 97%. Further, the viability at 1 ug/ml in data set [3] was determined as 108%.

On to `[O-][n+]1nc(N2CCC(c3ccc(F)cc3)C2)[n+]([O-])c2cc3c(cc21)CCC3` (centres unmarked) [Cmpd 17], for which the MIC in the data set on OFX-R was 0.049 mg/L (≈ 0.134 µM); with H37Rv, 0.098 mg/L (≈ 0.267 µM); in the data set on RMP-R, 0.027 mg/L (≈ 0.0737 µM); against INH-r it was 0.049 mg/L (≈ 0.134 µM). Besides, the viability at 0.01 ug/ml in data set [3] was found to be 104%. In addition, the viability at 0.1 ug/ml in [3] was determined as 82%. In data set [3], the viability at 1 ug/ml came to 69%.

In the case of `NNC(=O)c1ccncc1` [INH, Isoniazid, reference compound], the “Vero Tox CC50” value in the data set on Vero cells is >50 mg/L. Besides, the minimum inhibitory concentration (MIC) was > 20 mg/L in the data set on NRP Mtb H37Rv cells, 0.091 mg/L (≈ 0.664 µM) in the data set on Mtb H37Rv [1] and 0.06 mg/L (≈ 0.438 µM) with Mtb H37Rv [2].

In the data set on H37Rv, `COc1cccc(C2CCN(c3n[n+]([O-])c4cc5c(cc4[n+]3[O-])CCC5(C)C)C2)c1OC` (centres unmarked) [Cmpd 8] came in with a minimum inhibitory concentration (MIC) of 0.7 mg/L (≈ 1.6 µM).

As for `CN(c1n[n+]([O-])c2cc3c(cc2[n+]1[O-])CCC3)C1(c2ccc(F)cc2)CC1` [Cmpd 4], the MIC with H37Rv came to 4.6 mg/L (≈ 12.6 µM).
